Tests used:
Assay type in all cases: in vivo, rat
[1] = test system: controlled cortical impact model of brain injury; assay: Morris Water Maze test of cognitive function after controlled cortical impact TBI
Source text: Male Sprague-Dawley rats (Harlan Sprague-Dawley, Indianapolis, Ind.), weighing 350-450 grams each were given free access to food and water before the experiment. The animals were anesthetized with halothane (1% in 70%/30% […] by mask).
The controlled cortical impact model of brain injury utilized in this study has been described in detail (Scheff and Sullivan, 1999). Animals were anesthetized with isoflorane and placed in a stereotaxic frame in the […] position. A 6 mm craniotomy located approximately midway between bregma and lambda, just above the somatosensory cortex, was made using a Michele trephine. The skull disk was then removed without disturbing the underlying dura mater. The exposed brain was injured using an electronically controlled piston (5 mm diameter, 65 kdynes). The animals in the “sham” group underwent identical surgical procedures, but the surface of the brain was not impacted.
Following surgery, animals were placed in their home cage and dosing was initiated. Animals were treated with saline (Group 1: sham, Group 2: injured), PEG (Group 3: injured), magnesium (Group 4: injured) or a combination of PEG and magnesium solutions (Group 5: injured). The PEG solution was composed of PEG3350 at 30% in 0.5% saline (custom made by AAIPharma Developmental Services, Wilmington, N.C.). […] The magnesium solution was diluted in saline 1:1 before intravenous injection as recommended by the manufacturer. In the cases of combined PEG+Mg combined treatments, animal received the PEG and magnesium components from two individual solutions.
The first two injections were administered 15 minutes following injury. Another round of two injections was given 6 hours later. […] The compounds tested were administered by bolus intravenous injection. There were 10 animals per group.
This behavioral endpoint measure the ability of the rat to learn a new task based on the memorization of spatial cues. […]. […]
To evaluate the significance of difference between experimental groups, data were analyzed using an unpaired, two-tailed t statistical test with confidence intervals of 95%. […]

[2] = test system: carrageenan-induced hind paw acute inflammation; assay: Carrageenan hind paw acute inflammation model, mechanical allodynia (up-down method); settings: Example 7, 24 h after carrageenan
Experimental: Animals were treated with saline (0.5% final), indomethacin, PEG, magnesium or combined PEG+magnesium solutions. Each animal received 2 injections, the first one 1 hour following carrageenan injection and the second injection 6 hours later. The total dose of PEG and magnesium chloride administered was of 2 and 0.135 g/kg (body weight) respectively. There were 10 animals per group.
Indomethacin (Fluka, cat. 57413, lot 450544/1) was dissolved in 25% hydroxyl-propyl beta cyclodextrin (hpBCD) by gentle heating and stirring. The PEG solution was composed of PEG3350 at 30% in 0.5% saline, the magnesium solution was composed of magnesium chloride at 2% and the combined PEG+magnesium solution was composed of 30% PEG3350+2% Magnesium Chloride (custom made by AAIPharma Developmental Services, Wilmington, N.C.). […]
Twenty-four hours following carrageenan injection into the left paw, the same paw was tested for mechanical allodynia. Baseline and post-treatment values for non-noxious mechanical sensitivity were evaluated using 8 Semmes-Weinstein filaments (Stoelting, Wood Dale, Ill., USA) with varying stiffness (0.4, 0.7, 1.2, 2.0, 3.6, 5.5, 8.5, and 15 g) according to the up-down method (Chaplan et al., 1994). […]
To evaluate the significance of difference between experimental groups, data were analyzed using an unpaired, two-tailed t statistical test with confidence intervals of 95%.

[3] = test system: spinal cord contusion (T10, pneumatic impactor); assay: Spinal cord lesion volume after spinal cord contusion (dural impact); settings: Example 4, total PEG 2 g/kg, magnesium sulfate 0.12 g/kg i.v., PEG change not statistically significant
Source text: Sprague-Dawley female rats (200-225 gm) received a spinal cord contusion using the Precision Scientific Inc pneumatic impactor. Prior to surgery, rats were assigned to different treatment groups based on a randomized block design so that on any given surgery day all treatments would be included. […] The vertebral column was stabilized with angled clamps on the upper thoracic (T8) and lumbar (T11) levels and the impactor with a tip diameter of 2 mm was delivered at approximately 50 kd onto the exposed, intact dura overlying the dorsal spinal cord. The impactor was immediately removed, the wound irrigated with saline, and the muscle and skin openings sutured together. Female animals were used due to the paralysis associated with the injury and ease of voiding the bladder.
At the end of the study, the spinal cords were extracted and fixed in 4% paraformaldehyde. […] Tissue sparing was determined by computed image analysis be from 10 evenly spaced sections through the injured T10 segment. […]

[4] = test system: controlled clip-compression injury at T4; assay: Neuropathic pain (mechanical allodynia, Semmes-Weinstein monofilament) after SCI; settings: Example 6; mechanical allodynia up to 3 weeks post-injury
Experimental: Animals were prepared as described in Example 3. Animals were tested for the development of neuropathic pain before and up to 3 weeks post-injury. Neuropathic pain occurrence and severity was evaluated by the response of the animal to a stimulus that is normally not painful or allodynia. […] The monofilament was applied 10 times for 3 seconds, with each stimulus being separated by a 5 second interval, and the number of avoidance responses out of a possible 10 were recorded. Avoidance responses were defined as flinching, escape, vocalization, or abnormal aggressive behaviors. The scoring system used to monitor mechanical allodynia has been presented in details in Gris et al., 2004. Mechanical allodynia testing was conducted twice per week and the 2 tests were averaged for each animal and reported as a weekly pain score. To evaluate the significance of difference between experimental groups, data were analyzed using an unpaired, two-tailed t statistical test with confidence intervals of 95%. The Welch's modification was also used to analyze the motor recovery to take in account the significant variability in the control group.

[Cl-].[Cl-].[Mg+2] [magnesium chloride]
effect on cognitive recovery after TBI ([1]; Example 2, total 1.4 g/kg PEG, 0.230 mmol/kg magnesium chloride, 2 injections 15 min and 6 h post-TBI): no significant effect | effect on the loss of cognitive functions following brain injury ([1]; summary statement in description): no effect | effect on the pain score relative to animals treated with saline ([2]; total PEG 2 g/kg, magnesium chloride 0.135 g/kg): no significant effect

COc1ccc2c(c1)c(CC(=O)O)c(C)n2C(=O)c1ccc(Cl)cc1 [Indomethacin]
mean pain score (mechanical allodynia) ([2]; carrageenan-saline 3.4+/−0.5, sham 12.7+/−1.1, higher is better): 5.6+/−0.9

O=S(=O)([O-])[O-].[Mg+2] [Mg, magnesium sulfate]
effect on cognitive functions following TBI ([1]; Example 1, i.v. 15 min and 6 h post-injury, total PEG 1.4 g/kg, magnesium sulfate 0.230 mmol/kg, Morris Water Maze day 9-14): no effect | reduction of the lesion volume relative to control group (SCI-Saline) [3]: 33% | effect on the development of neuropathic pain after SCI [4]: no significant effect

From patent publication US9950005B2, “Compositions comprising biomembrane sealing agent for treatment of neuronal injury, and methods of use” (WARSAW ORTHOPEDIC, INC., priority 2006, dated 2018)
